# How the values were obtained:
# Type in all cases: in vivo
# [1] = system: windgrass (Apera spica-venti); assay: Test B postemergence plant response; conditions: for Plant response rating, Windgrass: Postemergence
# Outline: (§1)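 Visual ratings from 0 (no effect) to 100 (complete control), made against controls 13–15 days after treatment, kept in a greenhouse. Compounds were applied postemergence to potted plants at the 1- to 4-leaf stage (2–18 cm).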
# [2] = system: canarygrass (Phalaris minor); assay: Test B postemergence plant response; conditions: for Plant response rating, Canarygrass: Postemergence
# Outline: as §1
# [3] = system: winter barley (Hordeum vulgare); assay: Test B postemergence plant response; conditions: for Barley plant response rating (0 to 100 scale): 62 g ai/ha, postemergence, 0 is no effect, 100 is complete control; for Plant response rating, Barley: Postemergence
# Outline: as §1
# [4] = system: chickweed (Stellaria media); assay: Test B postemergence plant response; conditions: for Plant response rating, Chickweed: Postemergence
# Outline: as §1
# [5] = system: morningglory (Ipomoea coccinea); assay: Test B pre-/postemergence plant response; conditions: for Plant response rating, Morningglory: Postemergence
# Outline: (§2)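 Test compounds, formulated in a non-phytotoxic solvent mixture with surfactant, are applied to the soil surface (loam and sand blend) right after seeding, or sprayed over plants at the 1- to 4-leaf stage grown in peat moss/vermiculite medium. After 13 to 15 days under glasshouse conditions, each species is scored visually from 0 (no effect) to 100 (complete control) against controls.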
# [6] = system: bermudagrass (Cynodon dactylon); assay: Test B pre-/postemergence plant response; conditions: for Bermudagrass plant response rating (0 to 100 scale): 62 g ai/ha, postemergence, 0 is no effect, 100 is complete control; for Plant response rating, Bermudagrass: Postemergence
# Outline: as §2
# [7] = system: wild oat (Avena fatua); assay: Test B pre-/postemergence plant response; conditions: for Plant response rating, Oat, Wild: Postemergence
# Outline: as §2
# [8] = system: soybean (Glycine max); assay: Test B pre-/postemergence plant response; conditions: for Plant response rating, Soybean: Postemergence
# Outline: as §2
# [9] = system: corn (Zea mays); assay: Test B pre-/postemergence plant response; conditions: for Plant response rating, Corn: Postemergence
# Outline: as §2
# [10] = system: kochia (Kochia scoparia); assay: Test B pre-/postemergence plant response; conditions: for Plant response rating, Kochia: Postemergence
# Outline: as §2
# [11] = system: giant foxtail (Setaria faberii); assay: Test B pre-/postemergence plant response; conditions: for Plant response rating, Foxtail, Giant: Postemergence
# Outline: as §2
# [12] = system: johnsongrass (Sorghum halepense); assay: Test B pre-/postemergence plant response; conditions: for Plant response rating, Johnsongrass: Postemergence
# Outline: as §2
# [13] = system: blackgrass (Alopecurus myosuroides); assay: Test B pre-/postemergence plant response; conditions: for Blackgrass plant response rating (0 to 100 scale): 62 g ai/ha, postemergence, 0 is no effect, 100 is complete control; for Plant response rating, Blackgrass: Postemergence
# Outline: as §2
# [14] = system: cocklebur (Xanthium strumarium); assay: Test B pre-/postemergence plant response; conditions: for Plant response rating, Cocklebur: Postemergence
# Outline: as §2
# [15] = 62 g ai/ha, postemergence, 0 is no effect, 100 is complete control, 13 to 15 days
# [16] = 31 g ai/ha, 0 to 100 scale (0 no effect, 100 complete control)
# [17] = 125 g ai/ha, scale 0 to 100 (0 no effect, 100 complete control)
# [18] = 250 g ai/ha, scale 0 to 100 (0 no effect, 100 complete control), 13 to 15 days
compound,measurement,setting,value
CCCn1c(-c2cccc(C(F)(F)F)c2)ncc(C(=O)C2=C(O)CCCC2=O)c1=O [Compound 155],Windgrass plant response rating (0 to 100 scale),[1]; [15],55
same,"Plant response rating, Windgrass",[1]; [16],50
same,"Plant response rating, Windgrass",[1]; [17],70
same,"Plant response rating, Windgrass",[1]; [18],85
same,Canarygrass plant response rating (0 to 100 scale),[2]; [15],35
same,"Plant response rating, Canarygrass",[2]; [16],10
same,"Plant response rating, Canarygrass",[2]; [17],50
same,"Plant response rating, Canarygrass",[2]; [18],65
same,Barley plant response rating (0 to 100 scale),[3]; 13 to 15 days,30
same,"Plant response rating, Barley",[3]; [16],30
same,"Plant response rating, Barley",[3]; [17],45
same,"Plant response rating, Barley",[3]; [18],85
same,Chickweed plant response rating (0 to 100 scale),[4]; [15],100
same,"Plant response rating, Chickweed",[4]; [16],100
same,"Plant response rating, Chickweed",[4]; [17],100
same,"Plant response rating, Chickweed",[4]; [18],100
same,Morningglory plant response rating (0 to 100 scale),[5]; [15],85
same,"Plant response rating, Morningglory",[5]; [16],55
same,"Plant response rating, Morningglory",[5]; [17],100
same,"Plant response rating, Morningglory",[5]; [18],100
same,Bermudagrass plant response rating (0 to 100 scale),[6]; 13 to 15 days,98
same,"Plant response rating, Bermudagrass",[6]; [16],85
same,"Plant response rating, Bermudagrass",[6]; [17],98
same,"Plant response rating, Bermudagrass",[6]; [18],100
same,"Oat, Wild plant response rating (0 to 100 scale)",[7]; [15],40
same,"Plant response rating, Oat, Wild",[7]; [16],10
same,"Plant response rating, Oat, Wild",[7]; [17],60
same,"Plant response rating, Oat, Wild",[7]; [18],70
same,Soybean plant response rating (0 to 100 scale),[8]; [15],95
same,"Plant response rating, Soybean",[8]; [16],95
same,"Plant response rating, Soybean",[8]; [17],100
same,"Plant response rating, Soybean",[8]; [18],100
same,Corn plant response rating (0 to 100 scale),[9]; [15],25
same,"Plant response rating, Corn",[9]; [16],5
same,"Plant response rating, Corn",[9]; [17],40
same,"Plant response rating, Corn",[9]; [18],65
same,Kochia plant response rating (0 to 100 scale),[10]; [15],100
same,"Plant response rating, Kochia",[10]; [16],35
same,"Plant response rating, Kochia",[10]; [17],100
same,"Plant response rating, Kochia",[10]; [18],100
same,"Foxtail, Giant plant response rating (0 to 100 scale)",[11]; [15],80
same,"Plant response rating, Foxtail, Giant",[11]; [16],65
same,"Plant response rating, Foxtail, Giant",[11]; [17],90
same,"Plant response rating, Foxtail, Giant",[11]; [18],95
same,Johnsongrass plant response rating (0 to 100 scale),[12]; [15],40
same,"Plant response rating, Johnsongrass",[12]; [16],10
same,"Plant response rating, Johnsongrass",[12]; [17],65
same,"Plant response rating, Johnsongrass",[12]; [18],70
same,Blackgrass plant response rating (0 to 100 scale),[13]; 13 to 15 days,35
same,"Plant response rating, Blackgrass",[13]; [16],10
same,"Plant response rating, Blackgrass",[13]; [17],60
same,"Plant response rating, Blackgrass",[13]; [18],65
same,Cocklebur plant response rating (0 to 100 scale),[14]; [15],55
same,"Plant response rating, Cocklebur",[14]; [16],15
same,"Plant response rating, Cocklebur",[14]; [17],98
same,"Plant response rating, Cocklebur",[14]; [18],100
CCCn1c(-c2cc(C)cc(C)c2)ncc(C(=O)C2=C(O)CCCC2=O)c1=O [Compound 156],"Plant response rating, Windgrass",[1]; [16],40
same,"Plant response rating, Windgrass",[1]; [17],55
same,"Plant response rating, Windgrass",[1]; [18],60
same,"Plant response rating, Canarygrass",[2]; [16],15
same,"Plant response rating, Canarygrass",[2]; [17],40
same,"Plant response rating, Canarygrass",[2]; [18],60
same,Barley plant response rating (0 to 100 scale),[3]; 13 to 15 days,45
same,"Plant response rating, Barley",[3]; [16],30
same,"Plant response rating, Barley",[3]; [17],60
same,"Plant response rating, Barley",[3]; [18],85
same,"Plant response rating, Chickweed",[4]; [16],80
same,"Plant response rating, Chickweed",[4]; [17],100
same,"Plant response rating, Chickweed",[4]; [18],100
same,"Plant response rating, Morningglory",[5]; [16],80
same,"Plant response rating, Morningglory",[5]; [17],100
same,"Plant response rating, Morningglory",[5]; [18],100
same,Bermudagrass plant response rating (0 to 100 scale),[6]; 13 to 15 days,90
same,"Plant response rating, Bermudagrass",[6]; [16],80
same,"Plant response rating, Bermudagrass",[6]; [17],95
same,"Plant response rating, Bermudagrass",[6]; [18],98
same,"Plant response rating, Oat, Wild",[7]; [16],5
same,"Plant response rating, Oat, Wild",[7]; [17],35
same,"Plant response rating, Oat, Wild",[7]; [18],50
same,"Plant response rating, Soybean",[8]; [16],80
same,"Plant response rating, Soybean",[8]; [17],98
same,"Plant response rating, Soybean",[8]; [18],98
same,"Plant response rating, Corn",[9]; [16],10
same,"Plant response rating, Corn",[9]; [17],45
same,"Plant response rating, Corn",[9]; [18],60
same,"Plant response rating, Kochia",[10]; [16],10
same,"Plant response rating, Kochia",[10]; [17],20
same,"Plant response rating, Kochia",[10]; [18],25
same,"Plant response rating, Foxtail, Giant",[11]; [16],75
same,"Plant response rating, Foxtail, Giant",[11]; [17],85
same,"Plant response rating, Foxtail, Giant",[11]; [18],90
same,"Plant response rating, Johnsongrass",[12]; [16],15
same,"Plant response rating, Johnsongrass",[12]; [17],45
same,"Plant response rating, Johnsongrass",[12]; [18],65
same,Blackgrass plant response rating (0 to 100 scale),[13]; 13 to 15 days,5
same,"Plant response rating, Blackgrass",[13]; [16],5
same,"Plant response rating, Blackgrass",[13]; [17],35
same,"Plant response rating, Blackgrass",[13]; [18],50
same,"Plant response rating, Cocklebur",[14]; [16],20
same,"Plant response rating, Cocklebur",[14]; [17],75
same,"Plant response rating, Cocklebur",[14]; [18],98
